# Experimental data reported in patent US20190046490A1, “METHODS OF TREATING LACTOSE INTOLERANCE” (Nogra Pharma Limited, priority 2016, published 2019).
# Legend:
# [1] = system: DR2 response element of the human LCT gene promoter; experiment: Luciferase reporter gene assay with LCT promoter DR2 fragment in Caco-2 cells; assay type: cell-based
# Procedure: A 321 bp genomic fragment (corresponding to the first 321 bp upstream to the transcription start site of the human lactase gene) was cloned in the pGL4-Luc reporter vector using XhoI and Hind III restriction sites introduced in “Hs-Prom-0.3 Kb sens” and “Hs-Prom-0.3 Kb anti-sens” oligonucleotides respectively. This construct and the empty vector control were transiently transfected in Caco-2 cells using Nucleofector™ Technology. Six hours post-transfection, cells were treated with PPARγ modulator for 12 hours. Luciferase activity was measured using the luciferase assay kit (Promega) in a Wallac Victor2 ™ 1420 multilabel counter (Perkin Elmer).
# [2] = target: T1, PPARγ bound to DR2 PPRE of the LCT gene promoter (Homo sapiens, UniProt P37231); experiment: Chromatin immunoprecipitation of PPARγ on the LCT gene promoter in Caco-2 cells; assay type: cell-based; details: 1 mM, 24 hours
# T1 construct: Chromatin immunoprecipitation (ChIP) experiments in Caco-2 cells (5×10^6 cells) stimulated for 24 hours with 1 mM GED; endogenous in cells; host or cells: Caco-2 (colonic adenocarcinoma) cells
# T1 sequence (P37231 1-505): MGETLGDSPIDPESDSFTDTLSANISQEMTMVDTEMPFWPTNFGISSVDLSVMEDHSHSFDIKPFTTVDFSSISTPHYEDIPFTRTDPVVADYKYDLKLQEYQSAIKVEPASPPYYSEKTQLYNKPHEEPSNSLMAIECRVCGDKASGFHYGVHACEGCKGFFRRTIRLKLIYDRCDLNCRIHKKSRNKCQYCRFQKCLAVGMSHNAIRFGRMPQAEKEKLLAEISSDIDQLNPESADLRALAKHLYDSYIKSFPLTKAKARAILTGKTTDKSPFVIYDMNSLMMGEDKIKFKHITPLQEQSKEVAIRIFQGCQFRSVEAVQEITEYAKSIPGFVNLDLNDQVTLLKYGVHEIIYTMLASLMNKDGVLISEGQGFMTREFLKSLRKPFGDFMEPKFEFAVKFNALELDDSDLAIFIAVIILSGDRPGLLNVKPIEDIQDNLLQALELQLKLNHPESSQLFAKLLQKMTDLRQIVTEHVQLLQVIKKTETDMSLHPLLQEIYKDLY
# T1 sequence (P19793 1-462 partner): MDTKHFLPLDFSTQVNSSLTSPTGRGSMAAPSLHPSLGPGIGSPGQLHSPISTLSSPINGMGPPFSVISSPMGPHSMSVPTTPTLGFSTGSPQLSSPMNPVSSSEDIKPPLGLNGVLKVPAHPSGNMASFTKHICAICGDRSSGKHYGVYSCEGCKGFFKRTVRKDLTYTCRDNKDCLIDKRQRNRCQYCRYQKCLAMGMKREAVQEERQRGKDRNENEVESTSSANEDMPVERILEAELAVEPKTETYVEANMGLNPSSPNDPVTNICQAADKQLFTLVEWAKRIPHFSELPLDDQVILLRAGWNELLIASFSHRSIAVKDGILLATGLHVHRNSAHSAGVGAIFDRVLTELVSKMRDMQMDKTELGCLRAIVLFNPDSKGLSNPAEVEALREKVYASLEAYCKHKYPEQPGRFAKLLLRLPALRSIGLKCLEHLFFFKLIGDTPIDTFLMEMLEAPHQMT
# Procedure: The physical binding of PPARγ onto the LCT gene promoter was studied by Chromatin immunoprecipitation (ChIP) experiments in Caco-2 cells (5×10^6 cells) stimulated for 24 hours with 1 mM GED in 100 mm cell culture petri dishes. Caco-2 cells were synchronized by the addition of serum-free medium for 16 hours and then stimulated for 24 hours using the protocol described previously. Cells were then rinsed with PBS and the protein-DNA complexes were fixed by adding 1% PFA for 30 minutes at room temperature. This binding was stopped by the addition of glycine (0.125M). Cells were collected by scraping in the presence of cold PBS and protease inhibitors (Sigma). The cell pellet obtained by centrifugation was taken up in 300 μl SDS buffer (1% SDS, 10 mM EDTA, 50 mM Tris-HCl pH 8, protease inhibitors) and sonicated (Diagenode, BioruptorUCD200TM-EX) for 30 seconds, followed by 30 seconds resting time. For each immunoprecipitation, 125 μL of crosslinked sonicated sample was diluted with 225 μl of IP buffer (1% triton X-100, 150 mM NaCl, 2 mM EDTA, 20 mM Tris-HCl pH 8.1 and protease inhibitors) and pre-cleared for four hours by adding 40 μL of protein A/G beads (50% slurry protein A/G Sepharose, Clinisciences) and 5 μg of salmon sperm DNA (Invitrogen). […] DNA was then purified using the PCR Clean-up kit (Macherey-Nagel) and analyzed by PCR.
# [3] = system: weaned rats fed with a lactose-enriched diet; experiment: Symptoms associated with lactose intolerance in weaned rats fed a lactose-enriched diet; assay type: in vivo; details: rats on lactose-enriched diet
# Procedure: Animal experiments were performed in the accredited Pasteur Institute animal care facility (Institut Pasteur de Lille, France; n° B59-35009) according to governmental guidelines (n° 2010/63/UE; Décret 2013-118) and animal ethics committee approval. Specific pathogen-free male C57BL/6 mice and Sprague-Dawley rats were obtained from Janvier Labs (France). Mice and rats were housed 5 animals/cage and 3 animals/cage, respectively, in a specific pathogen-free facility, in an air-conditioned room with controlled temperature (22±1° C.), humidity (65-70%), and 12 h light/12 h dark cycles. Animals were fed with standard laboratory chow (except when indicated) and were provided with autoclaved tap water ad libitum. Animals were acclimatized for at least 1 week before entering the study.
# In addition, the effect of GED on the symptoms associated with lactose intolerance was evaluated in weaned rats fed with a lactose-enriched diet provided by Ssniff Spezialdiäten GmbH (Soest, Germany). Animals were monitored daily, weighed, and stool consistencies were evaluated.
# SCFA were extracted and measured as described in […], which is incorporated herein by reference.
structure (smiles),measurement,setting,value
"COC(Cc1ccc(N)cc1)C(=O)O (centres unmarked) [GED, 3-(4′-aminophenyl)2-methoxypropionic acid]",luciferase activity compared to untreated cells,[1]; Caco-2 cells transfected with pGL4Luc Prom LCT construct,significantly increased
same,luciferase activity,[1]; Caco-2 cells with luciferase construct lacking the DR2 sequence (pGL4Luc),No significant change
same,increase of the amount of PPARγ bound to the DR2 PPRE compared to unstimulated cells,[2],2 fold
same,concentration of short-chain fatty acids (SCFA) in caecal contents,[3]; day 4,significant decrease
same,caecum volume compared to untreated rats,"[3]; sacrificed at day 4, data not shown",significant decrease
